# Assay results: PMC10281575, “PfCRT mutations conferring piperaquine resistance in falciparum malaria shape the kinetics of quinoline drug binding and transport” (PLOS Pathogens, 2023)
# Where “and” joins values, the source holds several entries; their conditions need not be identical. Identical values can stand only once.
# Experiments:
# PfCRT^Dd2_I260A = target: T1, PfCRT^Dd2_I260A (Plasmodium falciparum, UniProt Q8IBZ9, A220S/I260A/I356T/K76T/M74I/N326S/N75E/Q271E/R371I); test: PfCRT-mediated CQ transport in oocytes expressing PfCRT^Dd2_I260A; type: cell-based; details: S6 Fig; per biological replicate
# T1 construct: expressed in transfected cells; host or cells: Xenopus laevis oocytes
# T1 sequence (Q8IBZ9 1-424 M74I/N75E/K76T/A220S/I260A/Q271E/N326S/I356T/R371I): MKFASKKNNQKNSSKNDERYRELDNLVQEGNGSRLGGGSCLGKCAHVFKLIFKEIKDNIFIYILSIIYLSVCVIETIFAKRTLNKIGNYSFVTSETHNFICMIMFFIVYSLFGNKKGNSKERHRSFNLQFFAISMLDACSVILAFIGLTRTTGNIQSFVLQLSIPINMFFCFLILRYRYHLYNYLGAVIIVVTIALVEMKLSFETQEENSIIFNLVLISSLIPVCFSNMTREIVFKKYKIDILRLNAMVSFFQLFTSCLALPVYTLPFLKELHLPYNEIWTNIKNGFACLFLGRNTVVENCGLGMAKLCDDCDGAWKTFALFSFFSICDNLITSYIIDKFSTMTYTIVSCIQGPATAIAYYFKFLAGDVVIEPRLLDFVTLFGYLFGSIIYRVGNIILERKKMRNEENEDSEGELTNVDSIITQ
# From the text: The docking results reflect the differences in the experimentally measured affinities of the two compounds for PfCRT^Dd2, with CQ having less favorable docking scores compared to PPQ (S1 Table). […] In this pose, CQ forms polar contacts via the two positively charged nitrogens: the nitrogen of the diethylamino tail makes a salt bridge with E75 on TM1 and the nitrogen of the 4-amminoquinoline ring makes a hydrogen bond with S257 on TM7. Hydrophobic contacts are established by the quinoline ring with I260, V141, and F145.
# Drug transport assays were performed as previously described. Briefly, measurements of radiolabeled drug uptake were made over 1 h, unless otherwise specified. […] Where specified, one or more unlabeled drugs were also present at the indicated concentrations. […] The radioactivity in the sample was measured using a liquid scintillation analyser Tri-Carb 4910 TR (PerkinElmer). Water-injected oocytes were analyzed in parallel as a negative control. The buffer from each condition was measured in duplicate in parallel to each experiment to transform counts per minute into pmol of drug. Drug uptake attributable to PfCRT was determined by subtracting the background uptake from water-injected oocytes from that of PfCRT-expressing oocytes. […]
# Dd2^Dd2crt parasites = system: Dd2^Dd2crt parasites; design: method as in Okombo et al. (2022); details: ref Okombo et al. (2022); cited from earlier work
Compound,PfCRTDd2_I260A-mediated CQ transport (PfCRT^Dd2_I260A),drug accumulation ratio (Dd2^Dd2crt parasites)
"CCN(CC)CCCC(C)Nc1ccnc2cc(Cl)ccc12 (centres unmarked) [CQ, chloroquine]",2.260 pmol oocyte-1 h-1 and 2.400 pmol oocyte-1 h-1 and 3.540 pmol oocyte-1 h-1,–
"Clc1ccc2c(N3CCN(CCCN4CCN(c5ccnc6cc(Cl)ccc56)CC4)CC3)ccnc2c1 [PPQ, piperaquine]",–,1900 fold
